For 32 molecules, IC50 results are on record in patent US9096592B2, “Bicyclic aza heterocycles, and use thereof” (BAYER INTELLECTUAL PROPERTY GMBH, priority 2010, dated 2015).

Counter-ions that a name gives are not always drawn.

The subject of the test is aorta rings. Put plainly: Vasorelaxant action in vitro (phenylephrine-contracted rabbit aorta rings, organ bath). The conditions noted are these: Oryctolagus cuniculus; concentration needed to reduce the phenylephrine contraction of rabbit aorta rings by 50%. How it is done: B-1. Vasorelaxant Action In Vitro
Rabbits are stunned by a blow to the neck and exsanguinated. The aorta is removed, freed from adhering tissue and divided into rings of width 1.5 mm, which are placed individually under prestress into 5 ml organ baths with carbogen-sparged Krebs-Henseleit solution at 37° C. having the following composition (each mM): sodium chloride 119; potassium chloride: 4.8; calcium chloride dihydrate: 1; magnesium sulfate heptahydrate: 1.4; potassium dihydrogenphosphate: 1.2; sodium hydrogencarbonate: 25; glucose: 10. The contractile force is determined with Statham UC2 cells, amplified and digitalized using A/D transducers (DAS-1802 HC, Keithley Instruments Munich), and recorded in parallel on linear recorders. To obtain a contraction, phenylephrine is added to the bath cumulatively in increasing concentration. After several control cycles, the substance to be studied is added in increasing dosage each time in every further run, and the magnitude of the contraction is compared with the magnitude of the contraction attained in the last preceding run. This is used to calculate the concentration needed to reduce the magnitude of the control value by 50% (IC50 value). The standard administration volume is 5 μl; the DMSO content in the bath solution corresponds to 0.1%.
Take `COC(=O)N1CCNc2nc(-c3nn(Cc4ccccc4F)c4ncccc34)ccc21` [Example 63, Methyl 6-[1-(2-fluorobenzyl)-1H-pyrazolo[3,4-b]pyridin-3-yl]-3,4-dihydropyrido[2,3-b]pyrazine-1(2H)-carboxylate]: the IC50 (commonly the midpoint of a concentration-inhibition curve) was 139 nM. Next, `Cn1c(=O)[nH]c2nc(-n3nc(Cc4ccccc4F)c4ncccc43)nc(N)c21` [Example 89, 6-Amino-2-[3-(2-fluorobenzyl)-1H-pyrazolo[4,3-b]pyridin-1-yl]-7-methyl-7,9-dihydro-8H-purin-8-one]: 146 nM. With `O=c1[nH]c2nc(-c3nn(Cc4ccccc4F)c4ncccc34)ncc2n1Cc1ccccc1F` [Example 124, 7-(2-fluorobenzyl)-2-[1-(2-fluorobenzyl)-1H-pyrazolo[3,4-b]pyridin-3-yl]-7,9-dihydro-8H-purin-8-one], the IC50 came to 87 nM.

In turn, `Nc1nc(-c2nn(Cc3ccccc3F)c3ncccc23)nc2onc(C(F)(F)F)c12` [Example 15, 6-[1-(2-Fluorobenzyl)-1H-pyrazolo[3,4-b]pyridin-3-yl]-3-(trifluoromethyl)[1,2]oxazolo[5,4-d]pyrimidin-4-amine] displayed an IC50 of 730 nM.

In turn, `Nc1nc(-n2nc(Cc3ccccc3F)c3ncccc32)nc2[nH]c(=O)[nH]c12` [Example 90, 6-Amino-2-[3-(2-fluorobenzyl)-1H-pyrazolo[4,3-b]pyridin-1-yl]-7,9-dihydro-8H-purin-8-one] returned an IC50 of 5980 nM. The molecule `CC1=Nc2c(N)nc(-c3nn(Cc4ccccc4F)c4ncccc34)nc2NCC1` [Example 23, 2-[1-(2-Fluorobenzyl)-1H-pyrazolo[3,4-b]pyridin-3-yl]-6-methyl-8,9-dihydro-7H-pyrimido[4,5-b][1,4]diazepin-4-amine] came in with an IC50 of 197 nM. Next, `O=c1[nH]c2nc(-c3nn(Cc4ccccc4F)c4ncccc34)ncc2n1CC(F)(F)F` [Example 45, 2-[1-(2-Fluorobenzyl)-1H-pyrazolo[3,4-b]pyridin-3-yl]-7-(2,2,2-trifluoroethyl)-7,9-dihydro-8H-purin-8-one]: 41 nM; `Fc1ccccc1Cn1nc(-c2ncc3ccccc3n2)c2cccnc21` [Example 74, 2-[1-(2-Fluorobenzyl)-1H-pyrazolo[3,4-b]pyridin-3-yl]quinazoline]: 713 nM. Consider `O=c1[nH]c2ccc(-c3nn(Cc4ccccc4F)c4ncccc34)nc2[nH]1` [Example 71, 5-[1-(2-Fluorobenzyl)-1H-pyrazolo[3,4-b]pyridin-3-yl]-1,3-dihydro-2H-imidazo[4,5-b]pyridin-2-one], for which 86 nM corresponded to half-maximal inhibition (IC50). The molecule `Nc1nc(-c2nn(Cc3ccccc3F)c3ncccc23)nc2nccnc12` [Example 52, 2-[1-(2-Fluorobenzyl)-1H-pyrazolo[3,4-b]pyridin-3-yl]pteridin-4-amine] had an IC50 of 126 nM. The result for `Cn1c(=O)[nH]c2nc(-c3nn(Cc4ccccc4F)c4ncc(F)cc34)ncc21` [Example 95, 2-[5-Fluoro-1-(2-fluorobenzyl)-1H-pyrazolo[3,4-b]pyridin-3-yl]-7-methyl-7,9-dihydro-8H-purin-8-one] reads 44 nM; that for `Cc1nsc2nc(-c3nn(Cc4ccccc4F)c4ncccc34)nc(N)c12` [Example 13, 6-[1-(2-Fluorobenzyl)-1H-pyrazolo[3,4-b]pyridin-3-yl]-3-methyl[1,2]thiazolo[5,4-d]pyrimidin-4-amine], 246 nM; that for `CC(C)(C)Cn1c(=O)[nH]c2nc(-c3nn(Cc4ccccc4F)c4ncccc34)ncc21` [Example 122, 7-(2,2-Dimethylpropyl)-2-[1-(2-fluorobenzyl)-1H-pyrazolo[3,4-b]pyridin-3-yl]-7,9-dihydro-8H-purin-8-one], 42 nM. Next, `Nc1nc(-c2nn(Cc3ccccc3F)c3ncccc23)nc2cccc(Cl)c12` [Example 7, 5-Chloro-2-[1-(2-fluorobenzyl)-1H-pyrazolo[3,4-b]pyridin-3-yl]quinazolin-4-amine]: 1090 nM. Next, `Nc1nc(-c2nn(Cc3ccccc3F)c3ncccc23)nc2[nH]c(=O)n(CC(F)(F)F)c12` [Example 44, 6-Amino-2-[1-(2-fluorobenzyl)-1H-pyrazolo[3,4-b]pyridin-3-yl]-7-(2,2,2-trifluoroethyl)-7,9-dihydro-8H-purin-8-one]: 83 nM. `Nc1nc(-n2nc(Cc3ccccc3F)c3ncccc32)nc2[nH]c(=O)n(CCO)c12` [Example 92, 6-Amino-2-[3-(2-fluorobenzyl)-1H-pyrazolo[4,3-b]pyridin-1-yl]-7-(2-hydroxyethyl)-7,9-dihydro-8H-purin-8-one] came in with an IC50 of 535 nM. The result for `Nc1nc(-n2nc(Cc3ccccc3F)c3ncccc32)nc2[nH]c(=O)n(Cc3ccc(F)cc3)c12` [Example 91, 6-Amino-7-(4-fluorobenzyl)-2-[3-(2-fluorobenzyl)-1H-pyrazolo[4,3-b]pyridin-1-yl]-7,9-dihydro-8H-purin-8-one] reads 475 nM. As for `Cn1c(=O)[nH]c2nc(-c3nn(Cc4ccccc4F)c4ncccc34)nc(C(C)(C)O)c21` [Example 136, 2-[1-(2-Fluorobenzyl)-1H-pyrazolo[3,4-b]pyridin-3-yl]-6-(2-hydroxypropan-2-yl)-7-methyl-7,9-dihydro-8H-purin-8-one], inhibition was half-maximal at 114 nM (IC50). The result for `Nc1nc(-c2nn(Cc3ccccc3F)c3ncccc23)nc2cccnc12` [Example 85, 2-[1-(2-Fluorobenzyl)-1H-pyrazolo[3,4-b]pyridin-3-yl]pyrido[3,2-d]pyrimidin-4-amine] reads 164 nM.

In turn, `Nc1nc(-c2nn(Cc3ccccc3F)c3ncccc23)nc2[nH]c(=O)c(C(F)(F)F)nc12` [Example 50, 4-Amino-2-[1-(2-fluorobenzyl)-1H-pyrazolo[3,4-b]pyridin-3-yl]-6-(trifluoromethyl)pteridin-7(8H)-one] registered an IC50 of 1390 nM. The result for `O=c1[nH]c2nc(-c3nn(Cc4ccccc4F)c4ncccc34)ncc2n1CCN1CCOCC1` [Example 142, 2-[1-(2-Fluorobenzyl)-1H-pyrazolo[3,4-b]pyridin-3-yl]-7-[2-(morpholin-4-yl)ethyl]-7,9-dihydro-8H-purin-8-one] reads 98 nM; that for `CCOC(=O)N1CCNc2nc(-c3nn(Cc4ccccc4F)c4ncccc34)nc(N)c21` [Example 76, Ethyl 4-amino-2-[1-(2-fluorobenzyl)-1H-pyrazolo[3,4-b]pyridin-3-yl]-7,8-dihydropteridine-5(6H)-carboxylate formate], 23 nM. Next, `CS(=O)(=O)CCn1c(=O)[nH]c2nc(-c3nn(Cc4ccccc4F)c4ncc(F)cc34)ncc21` [Example 146, 2-[5-Fluoro-1-(2-fluorobenzyl)-1H-pyrazolo[3,4-b]pyridin-3-yl]-7-[2-(methylsulfonyl)ethyl]-7,9-dihydro-8H-purin-8-one]: 421 nM; `O=c1[nH]c2nc(-c3nn(Cc4ccccc4F)c4ncccc34)ncc2n1C1CCN(CC(F)F)CC1` [Example 145, 7-[1-(2,2-Difluoroethyl)piperidin-4-yl]-2-[1-(2-fluorobenzyl)-1H-pyrazolo[3,4-b]pyridin-3-yl]-7,9-dihydro-8H-purin-8-one]: 171 nM; `CC(C)c1nc2c(N)nc(-c3nn(Cc4ccccc4F)c4ncccc34)nc2[nH]c1=O` [Example 83, 4-Amino-2-[1-(2-fluorobenzyl)-1H-pyrazolo[3,4-b]pyridin-3-yl]-6-isopropylpteridin-7(8H)-one]: 27 nM. Next, `Fc1cnc2c(c1)c(-c1ncc3cc[nH]c3n1)nn2Cc1ccccc1F` [Example 97, 5-Fluoro-1-(2-fluorobenzyl)-3-(7H-pyrrolo[2,3-d]pyrimidin-2-yl)-1H-pyrazolo[3,4-b]pyridine]: 464 nM; `O=c1[nH]c2nc(-c3nn(Cc4ccccc4F)c4ncccc34)ncc2n1C1CNC1` [Example 147, 7-(Azetidin-3-yl)-2-[1-(2-fluorobenzyl)-1H-pyrazolo[3,4-b]pyridin-3-yl]-7,9-dihydro-8H-purin-8-one hydrochloride]: 580 nM. As for `Nc1nc(-c2nn(Cc3ccccc3F)c3ncccc23)nc2nc(C(F)(F)F)n(CC(F)(F)F)c12` [Example 61, 2-[1-(2-Fluorobenzyl)-1H-pyrazolo[3,4-b]pyridin-3-yl]-7-(2,2,2-trifluoroethyl)-8-(trifluoromethyl)-7H-purin-6-amine], the half-maximal inhibitory concentration (IC50) turned out to be 759 nM.

`Nc1nc(-c2nn(Cc3ccccc3F)c3ncccc23)nc2nsnc12` [Example 57, 5-[1-(2-Fluorobenzyl)-1H-pyrazolo[3,4-b]pyridin-3-yl][1,2,5]thiadiazolo[3,4-d]pyrimidin-7-amine] yielded an IC50 of 39 nM. Next, `Cc1nc(-c2nn(Cc3ccccc3F)c3ncccc23)nc2[nH]c(=O)[nH]c12` [Example 119, 2-[1-(2-Fluorobenzyl)-1H-pyrazolo[3,4-b]pyridin-3-yl]-6-methyl-7,9-dihydro-8H-purin-8-one]: 735 nM. The result for `Nc1nc(-c2nn(Cc3ccccc3F)c3ncccc23)nc2[nH]nc(OCCO)c12` [Example 21, 2-({4-Amino-6-[1-(2-fluorobenzyl)-1H-pyrazolo[3,4-b]pyridin-3-yl]-1H-pyrazolo[3,4-d]pyrimidin-3-yl}oxy)ethanol] reads 233 nM; that for `Nc1nc(-c2nn(Cc3ccccc3F)c3ncccc23)nc2ccncc12` [Example 84, 2-[1-(2-Fluorobenzyl)-1H-pyrazolo[3,4-b]pyridin-3-yl]pyrido[4,3-d]pyrimidin-4-amine], 155 nM.
